The series deals with ENO1-intact glioma cells. As to the kind of experiment: Toxicity to ENO1-intact glioma cells during 13C-1 glucose tracing. The class given is cell-based, human. Conditions: 10 μM, four days. The protocol:
^13C-1 glucose tracing by NMR treatment was performed with a concentration of SF2312 (10 μM) that is non-toxic to ENO1-intact glioma cells for four days, led to profound inhibition of glucose consumption (isomeric peaks at 97 and 93 ppm) and lactate production (single peak at 20 ppm) in the media of D423 and Gli56 ENO1 deleted but not ENO1-intact glioma cells (FIG. 33). At the same time, a single peak at 64 ppm became visible in the D423 and Gli56 ENO1-deleted cells treated with SF2312. The most likely origin of this peak is the C-3 atom glycerate, which has a reported ^13C peak of 64 ppm (Spectral Database of Organic Compounds, SDBS No. 18695) and is the atom on which the ^13C label derived from the C-1 atom on glucose is expected. […] Glycerate likely forms in response to enolase inhibition as 2-PGA or 3-PGA accumulate and (the substrates of the enzyme) spontaneously hydrolyze, or alternatively, are dephosphorylated by the action of glycerate kinase (GLYCTK, FIG. 41). These experiments were repeated with D423 ENO1-deleted and isogenic ENO1-rescued control glioma cells with both PhAH and SF2312 (FIGS. 32C & 32D). […] This effect is especially noticeable when expressed as a ratio of ^13C-glycerate to ^13C-lactate, metabolites upstream and downstream of the enolase reaction, respectively (FIG. 32D). […]

Each structure is given as a SMILES string.

As for `O=C1C(P(=O)(O)O)CC(O)N1O` (racemic) [SF2312, 3-dihydroxyphosphoryl-1,5-dihydroxy-2-pyrrolidone], the “toxicity to ENO1-intact glioma cells” value is given as “non-toxic”.

These data come from US10363261B2, “Enolase inhibitors and methods of treatment therewith” (Board of Regents, The University of Texas System, priority 2015, dated 2019).
